Here are results for 15 compounds from PubChem BioAssay (NCI).

“And” between values parts separate entries of the source, which are not always exact repeats. Equal values may be shown once.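 Exposure lasted 48 hours, with cells grown in 96-well plates and compounds tested at five concentrations. GI50: concentration for 50% inhibition of growth. TGI: concentration producing complete growth inhibition.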

For one experiment, the system named is OVCAR-3 ovarian. Description: growth of human tumour cells (NCI), 48 h.
Consider `COc1ccc2c(c1)CCC1C2CCC2(C)C1CCC2(O)CNC(=O)CCCCC1CCSS1` (centres undefined), for which the GI50 is 8.65 µM and the TGI was found to be 29.2 µM.

For the compound `C=CCC(N[C@H](CO)C(C)C)c1cn(C(=O)OCC)c2ccccc12` (some centres undefined), the GI50 is 16.6 µM and the TGI came out at 43.3 µM.

As for `CC1(C)CCC2(C(=O)OC3OC(CO)C(O)C(O)C3O)CC[C@]3(C)C(=CCC4C5(C)CC[C@H](OC6OC(C(=O)O)C(O)C(O)C6O)C(C)(C)C5CCC43C)C2C1` (some centres undefined), the GI50 is 3.27 µM and the TGI was greater than 50 µM.

Turning to `COc1ccc(C(=O)/C=C/c2ccc(Cl)cc2)cc1S(=O)(=O)Nc1c(N)nc(SC)[nH]c1=O`, the GI50 was 1.94 µM and the TGI was 3.94 µM.

As for `O=S(=O)(c1ccc(NC(=S)NCc2cccnc2)cc1)N1CCCCC1`, the GI50 was 52.6 µM and the TGI is greater than 100 µM.

`O=C(O)CSSCC(=O)O` came in with a TGI greater than 100 µM.

With `CC(C)(C(=O)NN)c1ccccc1`, the TGI is greater than 100 µM.

For the compound `COc1cccc(C2=C(c3cn(C)c4ccccc34)C(=O)NC2=O)c1`, the GI50 was 9.05 µM and the TGI is greater than 25 µM.

With `Fc1ccc2[nH]cc(Cc3c[nH]c4ccc(F)cc34)c2c1`, the GI50 was 19.5 µM and the TGI came out at 52.8 µM.

With `O=C(CCN1CCCC1)Nc1ccc2c(NCc3ccc(F)cc3)c3ccccc3nc2c1`, the GI50 is 0.488 µM and the TGI was 1.92 µM.

On to `C=C1C(=O)O[C@@H]2C1CC(=O)C(C)CC/C=C(\C)CCC[C@H](C)[C@H]2OC(C)=O` (some centres undefined), for which the GI50 is 10.2 µM and the TGI is 21.8 µM.

With `CSc1nnc(CCSc2ccnc3c(C(F)(F)F)cccc23)o1`, the GI50 is 91.9 µM and the TGI was greater than 100 µM.

For the compound `N#CC(C#N)=Cc1ccc(-c2ccc(-c3nc4ccccc4s3)cc2)o1`, the GI50 is 66.9 µM and the TGI is greater than 100 µM.

Turning to `Fc1ccc(-c2nc3n(c2-c2ccncc2)CCS3)cc1`, the GI50 is greater than 25 µM and the TGI was greater than 25 µM.

Consider `C=C(C)[C@@H]1CC=C(CO)CC1`, for which the GI50 is greater than 10 µM; the TGI was > 10 µM and 736 µM.

The test system of another experiment is OVCAR-8 ovarian. Description: growth of human tumour cells (NCI), 48 h.
Turning to `COc1ccc2c(c1)CCC1C2CCC2(C)C1CCC2(O)CNC(=O)CCCCC1CCSS1` (centres undefined), the GI50 was 11.7 µM and the TGI was greater than 100 µM.

Take `C=CCC(N[C@H](CO)C(C)C)c1cn(C(=O)OCC)c2ccccc12` (some centres undefined): the GI50 is 21.7 µM and the TGI is 48.2 µM.

As for `CC1(C)CCC2(C(=O)OC3OC(CO)C(O)C(O)C3O)CC[C@]3(C)C(=CCC4C5(C)CC[C@H](OC6OC(C(=O)O)C(O)C(O)C6O)C(C)(C)C5CCC43C)C2C1` (some centres undefined), the GI50 is 4.28 µM and the TGI turned out to be 18.1 µM.

On to `COc1ccc(C(=O)/C=C/c2ccc(Cl)cc2)cc1S(=O)(=O)Nc1c(N)nc(SC)[nH]c1=O`, for which the GI50 was 3.07 µM and the TGI was 9.56 µM.

Turning to `O=S(=O)(c1ccc(NC(=S)NCc2cccnc2)cc1)N1CCCCC1`, the GI50 was 0.0991 µM and the TGI is greater than 100 µM.

Regarding `O=C(O)CSSCC(=O)O`, the TGI was greater than 100 µM.

In turn, `CC(C)(C(=O)NN)c1ccccc1` displayed a TGI greater than 100 µM.

With `COc1cccc(C2=C(c3cn(C)c4ccccc34)C(=O)NC2=O)c1`, the GI50 is 8.25 µM and the TGI was greater than 25 µM.

Consider `Fc1ccc2[nH]cc(Cc3c[nH]c4ccc(F)cc34)c2c1`, for which the GI50 is 19.4 µM and the TGI is 52 µM.

With `O=C(CCN1CCCC1)Nc1ccc2c(NCc3ccc(F)cc3)c3ccccc3nc2c1`, the GI50 is 0.517 µM and the TGI came to 2.86 µM.

Turning to `C=C1C(=O)O[C@@H]2C1CC(=O)C(C)CC/C=C(\C)CCC[C@H](C)[C@H]2OC(C)=O` (some centres undefined), the GI50 is 17.9 µM and the TGI stood at 41.1 µM.

Regarding `CSc1nnc(CCSc2ccnc3c(C(F)(F)F)cccc23)o1`, the GI50 was greater than 100 µM and the TGI is greater than 100 µM.

Turning to `N#CC(C#N)=Cc1ccc(-c2ccc(-c3nc4ccccc4s3)cc2)o1`, the GI50 was 12.7 µM and the TGI is 33.1 µM.

With `Fc1ccc(-c2nc3n(c2-c2ccncc2)CCS3)cc1`, the GI50 is greater than 25 µM and the TGI was greater than 25 µM.

Turning to `C=C(C)[C@@H]1CC=C(CO)CC1`, the GI50 is greater than 10 µM; the TGI was > 10 µM and 857 µM.

The subject of the next experiment is SNB-19 CNS. Description: growth of human tumour cells (NCI), 48 h.
With `COc1ccc2c(c1)CCC1C2CCC2(C)C1CCC2(O)CNC(=O)CCCCC1CCSS1` (centres undefined), the GI50 is 18.1 µM and the TGI is 51.1 µM.

For the compound `C=CCC(N[C@H](CO)C(C)C)c1cn(C(=O)OCC)c2ccccc12` (some centres undefined), the GI50 is 59.9 µM and the TGI is greater than 100 µM.

In the case of `CC1(C)CCC2(C(=O)OC3OC(CO)C(O)C(O)C3O)CC[C@]3(C)C(=CCC4C5(C)CC[C@H](OC6OC(C(=O)O)C(O)C(O)C6O)C(C)(C)C5CCC43C)C2C1` (some centres undefined), the GI50 is 1.44 µM and the TGI was 8.39 µM.

Regarding `COc1ccc(C(=O)/C=C/c2ccc(Cl)cc2)cc1S(=O)(=O)Nc1c(N)nc(SC)[nH]c1=O`, the GI50 is 2.52 µM and the TGI is 8.34 µM.

`O=S(=O)(c1ccc(NC(=S)NCc2cccnc2)cc1)N1CCCCC1`: the GI50 is 9.5 µM and the TGI is greater than 100 µM.

Compound `O=C(O)CSSCC(=O)O` came in with a TGI greater than 100 µM.

Take `CC(C)(C(=O)NN)c1ccccc1`: the TGI was greater than 100 µM.

Regarding `COc1cccc(C2=C(c3cn(C)c4ccccc34)C(=O)NC2=O)c1`, the GI50 is greater than 25 µM and the TGI was greater than 25 µM.

`Fc1ccc2[nH]cc(Cc3c[nH]c4ccc(F)cc34)c2c1`: the GI50 is 20.2 µM and the TGI came to 51.9 µM.

With `O=C(CCN1CCCC1)Nc1ccc2c(NCc3ccc(F)cc3)c3ccccc3nc2c1`, the GI50 was 0.47 µM and the TGI amounted to 1.87 µM.

As to `C=C1C(=O)O[C@@H]2C1CC(=O)C(C)CC/C=C(\C)CCC[C@H](C)[C@H]2OC(C)=O` (some centres undefined), the GI50 was 25.5 µM and the TGI was greater than 100 µM.

Take `CSc1nnc(CCSc2ccnc3c(C(F)(F)F)cccc23)o1`: the GI50 was 61.6 µM and the TGI is greater than 100 µM.

With `N#CC(C#N)=Cc1ccc(-c2ccc(-c3nc4ccccc4s3)cc2)o1`, the GI50 is 30 µM and the TGI stood at 84.3 µM.

Consider `Fc1ccc(-c2nc3n(c2-c2ccncc2)CCS3)cc1`, for which the GI50 was greater than 25 µM and the TGI was greater than 25 µM.

`C=C(C)[C@@H]1CC=C(CO)CC1`: the GI50 was greater than 10 µM; the TGI was > 10 µM and 1010 µM.

Another experiment has as its system HCT-15 colon. Description: growth of human tumour cells (NCI), 48 h.
For `COc1ccc2c(c1)CCC1C2CCC2(C)C1CCC2(O)CNC(=O)CCCCC1CCSS1` (centres undefined), the GI50 was 3.56 µM and the TGI was greater than 100 µM.

As to `C=CCC(N[C@H](CO)C(C)C)c1cn(C(=O)OCC)c2ccccc12` (some centres undefined), the GI50 is 32.4 µM and the TGI was greater than 100 µM.

Turning to `CC1(C)CCC2(C(=O)OC3OC(CO)C(O)C(O)C3O)CC[C@]3(C)C(=CCC4C5(C)CC[C@H](OC6OC(C(=O)O)C(O)C(O)C6O)C(C)(C)C5CCC43C)C2C1` (some centres undefined), the GI50 was 6.73 µM and the TGI worked out at 13.3 µM.

For `COc1ccc(C(=O)/C=C/c2ccc(Cl)cc2)cc1S(=O)(=O)Nc1c(N)nc(SC)[nH]c1=O`, the GI50 is 3.24 µM and the TGI was found to be 14.9 µM.

For `O=S(=O)(c1ccc(NC(=S)NCc2cccnc2)cc1)N1CCCCC1`, the GI50 was 13.6 µM and the TGI is greater than 100 µM.

In the case of `O=C(O)CSSCC(=O)O`, the TGI was greater than 100 µM.

Compound `CC(C)(C(=O)NN)c1ccccc1` registered a TGI greater than 100 µM.

Turning to `COc1cccc(C2=C(c3cn(C)c4ccccc34)C(=O)NC2=O)c1`, the GI50 is 5.57 µM and the TGI was greater than 25 µM.

Regarding `Fc1ccc2[nH]cc(Cc3c[nH]c4ccc(F)cc34)c2c1`, the GI50 was 17.5 µM and the TGI worked out at 55.6 µM.

On to `O=C(CCN1CCCC1)Nc1ccc2c(NCc3ccc(F)cc3)c3ccccc3nc2c1`, for which the GI50 was 1.53 µM and the TGI came to 4.07 µM.

With `C=C1C(=O)O[C@@H]2C1CC(=O)C(C)CC/C=C(\C)CCC[C@H](C)[C@H]2OC(C)=O` (some centres undefined), the GI50 is 13.7 µM and the TGI was determined as 30.4 µM.

With `CSc1nnc(CCSc2ccnc3c(C(F)(F)F)cccc23)o1`, the GI50 is greater than 100 µM and the TGI was greater than 100 µM.

Turning to `N#CC(C#N)=Cc1ccc(-c2ccc(-c3nc4ccccc4s3)cc2)o1`, the GI50 is 11.9 µM and the TGI came to 50.4 µM.

Take `Fc1ccc(-c2nc3n(c2-c2ccncc2)CCS3)cc1`: the GI50 was greater than 25 µM and the TGI was greater than 25 µM.

For the compound `C=C(C)[C@@H]1CC=C(CO)CC1`, the GI50 was greater than 10 µM; the TGI is > 10 µM and 790 µM.

The test system of another experiment is MDA-MB-435. Nature of the experiment: growth of human tumour cells (NCI), 48 h.
For the compound `COc1ccc2c(c1)CCC1C2CCC2(C)C1CCC2(O)CNC(=O)CCCCC1CCSS1` (centres undefined), the GI50 was 7.83 µM and the TGI was greater than 100 µM.

With `C=CCC(N[C@H](CO)C(C)C)c1cn(C(=O)OCC)c2ccccc12` (some centres undefined), the GI50 was 20.3 µM and the TGI amounted to 50.5 µM.

Take `CC1(C)CCC2(C(=O)OC3OC(CO)C(O)C(O)C3O)CC[C@]3(C)C(=CCC4C5(C)CC[C@H](OC6OC(C(=O)O)C(O)C(O)C6O)C(C)(C)C5CCC43C)C2C1` (some centres undefined): the GI50 was 2.52 µM and the TGI was greater than 50 µM.

Regarding `COc1ccc(C(=O)/C=C/c2ccc(Cl)cc2)cc1S(=O)(=O)Nc1c(N)nc(SC)[nH]c1=O`, the GI50 was 2.95 µM and the TGI was determined as 10.7 µM.

Regarding `O=S(=O)(c1ccc(NC(=S)NCc2cccnc2)cc1)N1CCCCC1`, the GI50 is 3.04 µM and the TGI was greater than 100 µM.

For `O=C(O)CSSCC(=O)O`, the TGI is greater than 100 µM.

Consider `CC(C)(C(=O)NN)c1ccccc1`, for which the TGI was greater than 100 µM.

Turning to `COc1cccc(C2=C(c3cn(C)c4ccccc34)C(=O)NC2=O)c1`, the GI50 was 6.38 µM and the TGI was greater than 25 µM.

In the case of `Fc1ccc2[nH]cc(Cc3c[nH]c4ccc(F)cc34)c2c1`, the GI50 is 7.46 µM and the TGI was 24.9 µM.

For `O=C(CCN1CCCC1)Nc1ccc2c(NCc3ccc(F)cc3)c3ccccc3nc2c1`, the GI50 was 0.692 µM and the TGI came out at 1.97 µM.

As for `C=C1C(=O)O[C@@H]2C1CC(=O)C(C)CC/C=C(\C)CCC[C@H](C)[C@H]2OC(C)=O` (some centres undefined), the GI50 was 14.7 µM and the TGI is 28 µM.

Turning to `CSc1nnc(CCSc2ccnc3c(C(F)(F)F)cccc23)o1`, the GI50 is greater than 100 µM and the TGI was greater than 100 µM.

On to `N#CC(C#N)=Cc1ccc(-c2ccc(-c3nc4ccccc4s3)cc2)o1`, for which the GI50 was 25.4 µM and the TGI came to 81.8 µM.

`Fc1ccc(-c2nc3n(c2-c2ccncc2)CCS3)cc1`: the GI50 is greater than 25 µM and the TGI is greater than 25 µM.

Compound `C=C(C)[C@@H]1CC=C(CO)CC1` gave a TGI greater than 10 µM.
